Measured values as given in patent publication US11369602B2, “Use of tadalafil as protein arginine methyltransferase (PRMT5) inhibitor” (Fourth Mil. Med. Univ. of People's Lib. Army, priority 2019, dated 2022).
Each block holds one compound with its values, some of them ahead of it.

Tests used:
MDA-MB-231 tumor = test: MDA-MB-231 xenograft tumor growth in immunodeficient mice; format: in vivo; conditions: Tadalafil oral gavage 2 mg/kg once a day; Doxorubicin tail vein 2 mg/kg once a week; 25 days (FIG. 6)
Method: Immunodeficient mice were seeded with MDA-MB-231 cells respectively. When tumor volumes reached 50-100 mm3, mice were given treatment selected from the following: PBS (Control, Ctrl), Tadalafil, Doxorubicin (DOX), Tadalafil in combination with Doxorubicin (DOX+Tadalafil). Tadalafil was administered by oral gavage (2 mg/kg, once a day) while Doxorubicin was administered by mouse tail vein injection (2 mg/kg, once a week). Body weights of mice and tumor volumes were measured every day for 25 days.

[1] = target: T1, PRMT5 (PRMT5/MEP50 purified protein) (Homo sapiens, UniProt O14744); test: SPR affinity analysis (Biacore T200); format: binding
T1 construct: purchased abcam ab198151
Method: Analysis of affinity of Tadalafil for target protein (PRMT5) was carried out using Biacore T200 analysis platform and SPR technology. Tadalafil was obtained from MCE corporation with catalog no: HY-9 0009A (50 mg). PRMT5/MEP50 purified protein was obtained from abcam corporation with catalog no: ab198151 (20 μg). Tadalafil was diluted to a series of concentrations in sequence of: 0.78, 1.56, 3.125, 6.25, 12.5, 25, 50 and 100 (μM).

tumor = test: Later functional experiment (tumor inhibitory effect)

T1 sequence (O14744 whole entry): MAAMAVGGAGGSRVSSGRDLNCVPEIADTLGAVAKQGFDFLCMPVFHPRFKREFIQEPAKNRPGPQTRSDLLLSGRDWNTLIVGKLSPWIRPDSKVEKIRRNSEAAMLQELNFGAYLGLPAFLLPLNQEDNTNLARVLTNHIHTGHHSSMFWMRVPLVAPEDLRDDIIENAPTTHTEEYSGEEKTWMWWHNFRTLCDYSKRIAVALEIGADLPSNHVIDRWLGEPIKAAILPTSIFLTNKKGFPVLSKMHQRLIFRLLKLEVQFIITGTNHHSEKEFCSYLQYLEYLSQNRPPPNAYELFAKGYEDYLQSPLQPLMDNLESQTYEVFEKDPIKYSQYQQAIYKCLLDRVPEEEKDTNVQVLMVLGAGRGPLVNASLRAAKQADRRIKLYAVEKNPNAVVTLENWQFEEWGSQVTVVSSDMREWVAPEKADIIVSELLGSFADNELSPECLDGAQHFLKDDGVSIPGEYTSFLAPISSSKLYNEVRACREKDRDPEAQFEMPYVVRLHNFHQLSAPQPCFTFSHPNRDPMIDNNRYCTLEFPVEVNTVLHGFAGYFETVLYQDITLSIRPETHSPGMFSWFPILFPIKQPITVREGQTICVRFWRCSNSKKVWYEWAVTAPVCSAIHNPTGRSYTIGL
T1 sequence (Q9BQA1 whole entry partner): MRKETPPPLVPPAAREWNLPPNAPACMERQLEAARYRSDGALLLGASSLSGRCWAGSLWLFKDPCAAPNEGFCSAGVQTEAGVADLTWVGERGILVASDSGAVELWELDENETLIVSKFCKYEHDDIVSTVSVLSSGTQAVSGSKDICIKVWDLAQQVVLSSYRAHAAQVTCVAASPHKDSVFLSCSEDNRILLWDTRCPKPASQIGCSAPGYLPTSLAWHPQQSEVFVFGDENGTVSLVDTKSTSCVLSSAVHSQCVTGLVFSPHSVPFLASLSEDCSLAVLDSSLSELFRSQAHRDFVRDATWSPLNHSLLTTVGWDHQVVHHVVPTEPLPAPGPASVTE

Compound: COc1cccc2c1C(=O)c1c(O)c3c(c(O)c1C2=O)C[C@@](O)(C(=O)CO)C[C@@H]3O[C@H]1C[C@H](N)[C@H](O)[C@H](C)O1 [Doxorubicin]
mouse tumor volume / tumor growth (MDA-MB-231 tumor): inhibited tumor growth

binding ability to PRMT5 ([1]; SPR experiment): lower binding ability to PRMT5
Compound: O=C(O)c1cc(/N=N/c2ccc(S(=O)(=O)Nc3ccccn3)cc2)ccc1O [Sulfasalazine]
tumor inhibitory effect (tumor): relatively weak tumor inhibitory effect

Kd ([1]; SPR, Biacore T200, Tadalafil 0.78-100 μM): 22.7 ± 9.6 µM
Compound: CN1CC(=O)N2[C@H](c3ccc4c(c3)OCO4)c3[nH]c4ccccc4c3C[C@@H]2C1=O [Tadalafil]
